Laboratory results as given in ChEMBL document CHEMBL5634076, “Optimization of pyridylpiperazine-based inhibitors of the Escherichia coli AcrAB-TolC efflux pump” (Eur J Med Chem, 2023).
≈ marks a conversion by molar mass, not a printed value.

Columns and labels:
Escherichia coli [1] = assay: Antibacterial activity against Escherichia coli BW25113 assessed as reduction in bacterial growth incubated for 20 hrs by resazurin microtitre assay; type: functional
[2] = target: T1, Multidrug efflux pump subunit AcrB (Escherichia coli (strain K12)) (UniProt P31224); assay: Inhibition of AcrB in Escherichia coli BW25113 assessed as potentiation of pyridomycin-induced antibacterial activity incubated for 20 hrs by resazurin microtitre assay
T1 sequence (whole entry): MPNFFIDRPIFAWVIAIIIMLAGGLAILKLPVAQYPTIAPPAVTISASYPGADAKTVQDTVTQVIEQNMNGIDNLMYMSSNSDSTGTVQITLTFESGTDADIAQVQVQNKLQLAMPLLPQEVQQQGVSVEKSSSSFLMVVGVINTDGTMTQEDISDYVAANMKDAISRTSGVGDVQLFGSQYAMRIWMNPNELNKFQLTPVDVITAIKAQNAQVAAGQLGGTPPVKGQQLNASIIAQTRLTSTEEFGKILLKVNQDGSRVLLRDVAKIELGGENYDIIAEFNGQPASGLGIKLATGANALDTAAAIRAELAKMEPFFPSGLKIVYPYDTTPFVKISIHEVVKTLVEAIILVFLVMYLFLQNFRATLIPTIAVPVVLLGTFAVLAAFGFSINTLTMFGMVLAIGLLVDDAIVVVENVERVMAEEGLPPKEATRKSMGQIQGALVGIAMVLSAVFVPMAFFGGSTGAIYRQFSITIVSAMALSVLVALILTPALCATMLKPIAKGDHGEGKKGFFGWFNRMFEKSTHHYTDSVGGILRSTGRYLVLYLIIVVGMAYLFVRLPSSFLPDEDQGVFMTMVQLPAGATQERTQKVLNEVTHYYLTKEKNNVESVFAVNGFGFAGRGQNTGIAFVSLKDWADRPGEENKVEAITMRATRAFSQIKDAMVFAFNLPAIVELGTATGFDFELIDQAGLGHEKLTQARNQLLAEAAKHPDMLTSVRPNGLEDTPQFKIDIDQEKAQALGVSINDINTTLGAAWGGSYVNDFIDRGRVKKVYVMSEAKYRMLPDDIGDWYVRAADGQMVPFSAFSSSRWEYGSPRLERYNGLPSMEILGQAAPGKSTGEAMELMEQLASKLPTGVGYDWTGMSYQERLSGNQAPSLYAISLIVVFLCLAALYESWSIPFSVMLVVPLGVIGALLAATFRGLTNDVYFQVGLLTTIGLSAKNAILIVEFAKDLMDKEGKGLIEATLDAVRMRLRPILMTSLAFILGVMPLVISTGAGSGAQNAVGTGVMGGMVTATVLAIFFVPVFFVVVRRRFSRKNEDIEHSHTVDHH

[3] = target: T1, Multidrug efflux pump subunit AcrB (Escherichia coli (strain K12)); assay: Potency index, ratio of BDM73185 EC90 to test compound EC90 for inhibition of AcrAB-TolC in Escherichia coli BW25113
Escherichia coli [4] = assay: Inhibition of AcrB Glu947Gln mutant in Escherichia coli BW25113 assessed as potentiation of pyridomycin-induced antibacterial activity incubated for 20 hrs by resazurin microtitre assay
Escherichia coli [5] = assay: Selectivity ratio of EC90 for inhibition of AcrB Glu947Gln mutant in Escherichia coli BW25113 to inhibition of AcrB in Escherichia coli BW25113 incubated for 20 hrs by resazurin microtitre assay
Escherichia coli [6] = assay: Selectivity ratio of EC90 for inhibition of AcrB Asp951Asn mutant in Escherichia coli BW25113 to inhibition of AcrB in Escherichia coli BW25113 incubated for 20 hrs by resazurin microtitre assay
Escherichia coli [7] = assay: Inhibition of AcrB Asp951Asn mutant in Escherichia coli BW25113 assessed as potentiation of pyridomycin-induced antibacterial activity incubated for 20 hrs by resazurin microtitre assay
[8] = Stability in CD-1 mouse liver microsomes assessed as intrinsic clearance at 1 uM measured up to 40 mins by LC-MS/MS analysis; type: ADME, Microsome; conditions: read-out: CLH
[9] = Stability in CD-1 mouse liver microsomes assessed as half life at 1 uM measured up to 40 mins by LC-MS/MS analysis; type: ADME, Microsome
[10] = target: T1, Multidrug efflux pump subunit AcrB (Escherichia coli (strain K12)); assay: Inhibition of AcrB in Escherichia coli BW25113 assessed as potentiation of pyridomycin-induced antibacterial activity incubated for 5 hrs by resazurin reduction assay
[11] = Stability in mouse plasma assessed as half life at 10 uM measured up to 360 mins by LC-MS/MS analysis; type: ADME, cell-free
[12] = Solubility of compound in PBS at pH 7.4 incubated for 24 hrs by LC-MS/MS analysis; type: physicochemical
Escherichia coli [13] = assay: Antibacterial activity against Escherichia coli BW25113 assessed as reduction in bacterial growth incubated up to 18 hrs by resazurin microtitre assay; type: functional

Row | SMILES | MIC (Escherichia coli [1]) [µM] | EC90 [2] [µM] | also measured
1 | FC(F)(F)c1cnc(N2CCNCC2)c(Br)c1 | > 250 | 16 | 
2 | O=C(OCc1ccccc1)c1cnc(N2CCNCC2)c(Cl)c1 | > 250 | 156 | 
3 | FC(F)(F)c1ccc(N2CCNCC2)nc1 | > 250 | > 500 | 
4 | CCOC(=O)c1cnc(N2CCNCC2)c(Cl)c1 | > 250 | 12 | Ratio [3]: 3
5 | NCc1cccc(COc2cnc(N3CCNCC3)c(Cl)c2)c1 | > 250 | 10 | EC90 (Escherichia coli [4]): > 250 µM; Ratio (Escherichia coli [5]): > 25; Ratio (Escherichia coli [6]): 25; EC90 (Escherichia coli [7]): 250 µM
6 | NCCNc1ncc(C(F)(F)F)cc1Cl | > 250 | > 500 | 
7 | COC(=O)c1cnc(N2CCNCC2)c(Cl)c1 | > 250 | 20 | Ratio [3]: 3
8 | Cc1nnc(-c2cnc(N3CCNCC3)c(Cl)c2)o1 | > 250 | 187 | 
9 | NCCc1ccc(NC(=O)c2cnc(N3CCNCC3)c(Cl)c2)cc1 | > 250 | 187 | 
10 | FC(F)(F)c1cc(I)cnc1N1CCNCC1 | > 250 | 94 | 
11 | O=C1CN(c2ncc(C(F)(F)F)cc2Cl)CCN1 | > 250 | > 500 | 
12 | NCc1nc(-c2cnc(N3CCNCC3)c(Cl)c2)no1 | > 250 | 81 | EC90 (Escherichia coli [4]): 250 µM; Ratio (Escherichia coli [5]): 3; Ratio (Escherichia coli [6]): 3; EC90 (Escherichia coli [7]): 250 µM
13 | Cc1onc(-c2ccccc2)c1C(=O)N[C@@H]1C(=O)N2[C@@H]1SC(C)(C)[C@@H]2C(=O)O [OXACILLIN] |  |  | MIC95 (Escherichia coli [1]): > 128 µg/mL
14 | O=C(Oc1ccccc1)c1cnc(N2CCNCC2)c(Cl)c1 | > 250 | 23 | 
15 | C[C@@H]1CNCCN1c1ncc(C(F)(F)F)cc1Cl | > 250 | > 500 | 
16 | OCc1cnc(N2CCNCC2)c(Cl)c1 | > 250 | > 250 | 
17 | FC(F)(F)c1cnc(C2=CCNCC2)c(Cl)c1 | > 250 | > 250 | 
18 | NCc1cccc(OCc2cnc(N3CCNCC3)c(Cl)c2)c1 | > 250 | 23 | EC90 (Escherichia coli [4]): > 250 µM; Ratio (Escherichia coli [5]): > 11; Ratio (Escherichia coli [6]): > 11; EC90 (Escherichia coli [7]): > 250 µM
19 | O=C(CBr)c1cnc(N2CCN(C(=O)OCC(Cl)(Cl)Cl)CC2)c(Cl)c1 | > 250 |  | 
20 | CC(=O)O[C@H]1C[C@@]2(C)[C@@H](C[C@@H](O)[C@H]3[C@@]4(C)CC[C@@H](O)[C@@H](C)[C@@H]4CC[C@@]32C)/C1=C(\CCC=C(C)C)C(=O)O [FUSIDIC ACID] |  |  | MIC95 (Escherichia coli [1]): > 128 µg/mL
21 | Cc1nc(-c2cnc(N3CCNCC3)c(Cl)c2)cs1 | > 250 | 187 | 
22 | CC(C)(C)OC(=O)N1CCN(c2ncc(N)cc2Cl)CC1 | > 250 |  | 
23 | NC1CCN(c2ncc(C(F)(F)F)cc2Cl)CC1 | > 250 | 500 | 
24 | NCCc1ccc(C(=O)Nc2cnc(N3CCNCC3)c(Cl)c2)cc1 | > 250 | 47 | 
25 | O=C(OCCc1ccccc1)c1cnc(N2CCNCC2)c(Cl)c1 | > 250 | 62 | 

Row | SMILES | MIC (Escherichia coli [1]) [µM] | EC90 [2] [µM] | also measured
26 | C[C@H]1CNCCN1c1ncc(C(F)(F)F)cc1Cl | > 250 | > 500 | 
27 | Clc1cc(I)cnc1N1CCNCC1 | > 250 |  | microsomal CLint at 1 µM [8]: 241 µL/min/mg; half-life at 1 µM [9]: 9 min; EC90 [10]: 12 µM; half-life at 10 µM [11]: > 360 min; solubility at 24 h [12]: > 200 µM
28 | CO[C@@H]1[C@@H](OC(N)=O)[C@@H](O)[C@H](Oc2ccc3c(O)c(NC(=O)c4ccc(O)c(CC=C(C)C)c4)c(=O)oc3c2C)OC1(C)C [NOVOBIOCIN] |  |  | MIC95 (Escherichia coli [1]): 80 µg/mL (≈ 131 µM)
29 | O=C(N[C@H](CO)[C@H](O)c1ccc([N+](=O)[O-])cc1)C(Cl)Cl [CHLORAMPHENICOL] |  |  | MIC95 (Escherichia coli [1]): 8 µg/mL (≈ 24.8 µM)
30 | CC(=O)NC[C@H]1CN(c2ccc(N3CCOCC3)c(F)c2)C(=O)O1 [LINEZOLID] |  |  | MIC95 (Escherichia coli [1]): > 128 µg/mL
31 | NCCOC(=O)c1cnc(N2CCNCC2)c(Cl)c1 | > 250 | > 250 | 
32 | OCc1cc(C(F)(F)F)cnc1N1CCNCC1 | > 250 | > 500 | 
33 | Cc1nc(-c2cnc(N3CCNCC3)c(Cl)c2)no1 | > 250 | 78 | 
34 | CC(=O)Nc1cnc(N2CCNCC2)c(Cl)c1 | > 250 | 187 | 
35 | C[C@@H]1CN(c2ncc(C(F)(F)F)cc2Cl)C[C@H](C)N1 | > 250 | > 500 | 
36 | CC[C@H]1OC(=O)[C@H](C)[C@@H](O[C@H]2C[C@@](C)(OC)[C@@H](O)[C@H](C)O2)[C@H](C)[C@@H](O[C@@H]2O[C@H](C)C[C@H](N(C)C)[C@H]2O)[C@](C)(O)C[C@@H](C)C(=O)[C@H](C)[C@@H](O)[C@]1(C)O [ERYTHROMYCIN] |  |  | MIC95 (Escherichia coli [13]): 128 µg/mL (≈ 174 µM)
37 | CS(=O)(=O)Nc1cnc(N2CCNCC2)c(Cl)c1 | > 250 | > 250 | 
38 | NCCCc1nc(-c2cnc(N3CCNCC3)c(Cl)c2)no1 | > 250 | 21 | EC90 (Escherichia coli [4]): > 250 µM; Ratio (Escherichia coli [5]): > 12; Ratio (Escherichia coli [6]): > 12; EC90 (Escherichia coli [7]): > 250 µM
39 | O=C(OCCCc1ccccc1)c1cnc(N2CCNCC2)c(Cl)c1 | 250 (≈ 90 µg/mL) | 250 | 
40 | O=C(Oc1cccc(CO)c1)c1cnc(N2CCNCC2)c(Cl)c1 | > 250 | 26 | EC90 (Escherichia coli [4]): 62 µM; Ratio (Escherichia coli [5]): 2.4; Ratio (Escherichia coli [6]): 2.4; EC90 (Escherichia coli [7]): 62 µM
41 | NCCc1ccc(OC(=O)c2cnc(N3CCNCC3)c(Cl)c2)cc1 | > 250 | 3 | EC90 (Escherichia coli [4]): 8 µM; Ratio (Escherichia coli [5]): 3; Ratio (Escherichia coli [6]): 8; EC90 (Escherichia coli [7]): 23 µM
42 | O=C(O)c1cnc(N2CCNCC2)c(Cl)c1 | > 250 |  | 
43 | CNC(=O)c1cnc(N2CCNCC2)c(Cl)c1 | > 250 | > 250 | 
44 | O=C(O)c1cn(C2CC2)c2cc(N3CCNCC3)c(F)cc2c1=O [CIPROFLOXACIN] |  |  | MIC95 (Escherichia coli [1]): 0.01 µg/mL (≈ 0.0302 µM)
45 | CCN1CCN(C(=O)N[C@@H](C(=O)N[C@@H]2C(=O)N3[C@@H]2SC(C)(C)[C@@H]3C(=O)O)c2ccccc2)C(=O)C1=O [PIPERACILLIN] |  |  | MIC95 (Escherichia coli [13]): 4 µg/mL (≈ 7.73 µM)
46 | CC(C)(C)OC(=O)N1CCN(c2ncc(/C(N)=N/O)cc2Cl)CC1 | > 250 |  | 
47 | Cc1nc(-c2cnc(N3CCNCC3)c(Cl)c2)co1 | > 250 | > 250 | 
48 | FC(F)(F)c1cnc(N2CCCNCC2)c(Cl)c1 | > 250 | > 500 | 
49 | NCc1cccc(NC(=O)c2cnc(N3CCNCC3)c(Cl)c2)c1 | > 250 | 156 | 
